Data taken from US11266706B2, “Method for preventing or alleviating lipid metabolism disorders using composition containing green tea extract with increased specific ingredient content” (AMOREPACIFIC CORPORATION, priority 2017, dated 2022).

Test: Stability of each ingredient according to time and temperature (HPLC content)
Assay type: physicochemical
Set-up: content of ingredient: unit not given here
Details: for stability of ingredient content over time and temperature: summary in words of Table 3, FIGS. 6 to 8
Method: In order to compare the catechin contents of the fermented green tea extract, each sample was analyzed by WATERS 2695 HPLC manufactured by Alliance, and analyzed using an ODS (C18) column. […] Each numerical value in Table 1 indicates the wt % of the corresponding ingredient, based on the total weight ratio of the extract.

[1] = Week 16: 45° C./Normal pressure
[2] = Week 16: Room temperature/Normal pressure
[3] = Week 25: 45° C./Normal pressure
[4] = Week 25: Refrigerated/Normal pressure
[5] = Week 25: Room temperature/Normal pressure

| Molecule | content of ingredient (Day 1 (Feb. 20, 2017)) | content of ingredient (Week 1 (Feb. 27, 2017)) | content of ingredient (Week 2 (Mar. 6, 2017)) | content of ingredient [1] | content of ingredient [2] | content of ingredient [3] | content of ingredient [4] | content of ingredient [5] | stability of ingredient content over time and temperature |
| --- | --- | --- | --- | --- | --- | --- | --- | --- | --- |
| epicatechin 3-O-gallate [ECG] | 2.22 | 2.28 | 2.27 | 2.38 | 2.36 | 2.21 | 2.15 | 2.02 | – |
| (−)-epigallocatechin gallate [EGCG] | 7.48 | 7.70 | 7.53 | 7.72 | 7.79 | 6.61 | 7.19 | 6.19 | rapidly decreased after a predetermined period |
| O=C(O[C@@H]1Cc2c(O)cc(O)cc2O[C@H]1c1cc(O)c(O)c(O)c1)c1cc(O)c(O)c(O)c1 [GCG, (−)-gallocatechin gallate] | 7.80 | 7.95 | 7.79 | 8.74 | 8.72 | 7.62 | 7.93 | 7.27 | maintained relatively stably |
| Oc1cc(O)c2c(c1)O[C@H](c1cc(O)c(O)c(O)c1)[C@H](O)C2 [EGC, epigallocatechin] | 2.12 | 2.12 | 2.19 | 2.50 | 2.84 | 2.28 | 2.61 | 2.06 | – |
